Reference: patent publication US7402610B2, “Carbonyl compound containing long-chain branched alkyl group” (Idemitsu Kosan Co., Ltd., priority 2004, dated 2008)

Tests used:
Type in all cases: physicochemical
[1] = Oxidation stability test, JIS K2514, kinematic viscosity before and after heating; conditions: for Change in kinematic viscosity (at 40° C.) / Change in kinematic viscosity (at 100° C.): after/before heating at 140° C. for 24 hours
Experimental: The oxidation stability of the above synthesized triester was tested and the viscosity before and after testing was measured. The oxidation stability test was conducted in accordance with JIS K2514, wherein the kinematic viscosity was measured at 40° C. and 100° C. after heating for 24 hours at 140° C. in the presence of copper and steel catalysts. The compounds showing a small change (increase) in kinematic viscosity were regarded as excelling in oxidation stability.

[2] = Loss on heat (plasticizer evaluation), JIS K6751-4; conditions: heating at 125° C. for three hours
Experimental: As the plasticizer evaluation, loss on heat was evaluated. In accordance with JIS K6751-4, the decrease in amount after heating at 125° C. for three hours was used as the heating loss.

[3] = Low temperature fluidity on cooling; conditions: cooled to −20° C.
Pour point, JIS K2269 = test: Pour point, JIS K2269
Experimental: The pour point of 3-octyl-tridecanoic acid was measured in accordance with JIS K2269. The pour point was determined to be −37° C. On the other hand, the pour point of a similar compound isostearic acid (2-n-heptylundecanoic acid) was −20° C. (“14303 Chemical Products”, The Chemical Daily Co., Ltd.). Another similar compound 2-octyldodecanoic acid was a solid having a melting point of 35° C.
The pour point which indicates the characteristics of the ester of the invention was measured in accordance with JIS K2269.

[4] = after heating at 140° C. for 24 hours, copper and steel catalysts

Compound	Kinematic viscosity at 40° C. [1, 4]	Change in kinematic viscosity (at 40° C.) [1]	Kinematic viscosity at 40° C. ([1]; before heating)	Decrease in amount after heating (%) [2]	Fluidity when cooled [3]	Pour point (Pour point, JIS K2269)	Kinematic viscosity at 100° C. [1, 4]	Change in kinematic viscosity (at 100° C.) [1]	Kinematic viscosity at 100° C. ([1]; before heating)
CCCCCCCC/C=C\CCCCCCCC(=O)OCCCCCCCC [Comparative Example 4, octyl oleate, reference compound]	19.89 mm^2/s	1.29	15.33 mm^2/s	0.30%	–	–	–	–	–
CCCCCCCCCCC(CCCCCCCC)CC(=O)OC (centres unmarked) [Example 1, methyl 3-octyl-tridecanoate]	–	–	–	–	did not decrease	–	–	–	–
CCCCCCCCCCC(CCCCCCCC)CC(=O)O (centres unmarked) [Example 2, 3-octyl-tridecanoic acid]	–	–	–	–	did not decrease	−37 °C	–	–	–
CCCCCCCCCCC(CC=O)CCCCCCCC (centres unmarked) [Example 3, 3-octyl-tridecanal]	–	–	–	–	has the fluidity	–	–	–	–
CCCCCCCCCCC(CCCCCCCC)CC(=O)OCCCCCCCC (centres unmarked) [Example 7, octyl 3-octyl-tridecanoate]	21.74 mm^2/s	1.04	20.08 mm^2/s	0.10%	–	–	–	–	–
trimethylolpropane tri(3-octyl-tridecanoate) [Example 4]	67.28 mm^2/s	1.07	62.76 mm^2/s	–	–	−50 or less ° C.	10.24 mm^2/s	1.03	9.95 mm^2/s
trimethylolpropane trioleate [Comparative Example 2, reference compound]	60.91 mm^2/s	1.27	47.96 mm^2/s	–	–	−47.5 °C	11.24 mm^2/s	1.16	9.66 mm^2/s
